Measured values reported in US9708336B2, “Metallo-beta-lactamase inhibitors” (priority 2014, dated 2017).
pIC50: −log10 of the molar value. Where two headings read alike, the source gives them in different places.

Tests used:
VIM-1 = VIM-1 (Pseudomonas aeruginosa (strain ATCC 15692 / DSM 22644 / CIP 104116 / JCM 14847 / LMG 12228 / 1C / PRS 101 / PAO1), UniProt A0A0F7KYQ8); assay: Enzyme activity: determination of IC50, fluorescence assay with CCF2-FA substrate (VIM-1); assay type: biochemical
Description: Enzyme Activity: Determination of IC50
The Class B enzyme activities were measured in the presence of the test inhibitor in a fluorescence assay against a commercially available substrate consisting of a cephalosporin core linking 7-hydroxycoumarin to fluorescein (CCF2-FA). The enzyme (NDM-1, IMP-1 or VIM-1) and the substrate were diluted in 100 mM KH2PO4 buffer (pH 7) containing 0.005% Tween-20 and 10 μM ZnSO4. […] The test inhibitor was dissolved in dimethylsulfoxide and diluted 1:50 in the assay, resulting in a final concentration range of 20 uM to 0.00063 uM. In a 384-well microplate, the test inhibitor was incubated with the metallo-β-lactamase enzyme and the substrate for 2 hours at 25° C. Fluorescence at 460 nm following excitation at 405 nm was measured. The IC50 value was determined from semi-logarithmic plots of enzyme inhibition versus inhibitor concentration, with a curve generated using a 4-parameter fit.

NDM-1 = NDM-1 (Klebsiella pneumoniae, UniProt C7C422); assay: biochemical; assay type: biochemical; conditions: read-out: NDM-1 IC50
IMP-1 = IMP-1 (Serratia marcescens, UniProt P52699); assay: biochemical; assay type: biochemical
[1] = tested on: Serratia marcescens expressing IMP-1 (CL5741); assay: Antibiotic potentiation activity: synergistic concentration (MITC95) with imipenem, OD600 growth; assay type: cell-based
Summary of the method: (§1)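 Clinical MBL-producing strains (E. coli NDM-1, S. marcescens IMP-1, K. pneumoniae VIM-1) from overnight plates were diluted 1:100 into 1.1×CAMHB. Compound was tested with imipenem at 4 μg/ml (optionally 1 μg/ml) or without it. After 22–24 h at 35 °C, growth was read as OD600.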

[2] = tested on: Escherichia coli expressing NDM-1 (CLB30016); assay: as above; assay type: cell-based
Summary of the method: as §1

[3] = tested on: Klebsiella pneumoniae expressing VIM-1 (IHMA599644); assay: as above; assay type: cell-based
Summary of the method: as §1

[4] = fluorescence assay with CCF2-FA substrate, read-out: VIM-1 IC50
[5] = fluorescence assay with CCF2-FA substrate
[6] = fluorescence assay with CCF2-FA substrate, read-out: IMP-1 IC50
[7] = CL5741 (IMP-1), 95% inhibition of bacterial growth
[8] = CLB30016 (NDM-1), 95% inhibition of bacterial growth
[9] = IHMA599644 (VIM-1), 95% inhibition of bacterial growth
[10] = NDM-1 enzyme, CCF2-FA fluorescence assay
[11] = IMP-1 enzyme, CCF2-FA fluorescence assay, read-out: IMP-1 IC50
[12] = Serratia marcescens expressing IMP-1 (CL5741), 95% growth inhibition
[13] = Escherichia coli expressing NDM-1 (CLB30016), 95% growth inhibition
[14] = Klebsiella pneumoniae expressing VIM-1 (IHMA599644), 95% growth inhibition
[15] = VIM-1 IC50, VIM-1 enzyme, CCF2-FA substrate
[16] = NDM-1 enzyme, CCF2-FA substrate
[17] = IMP-1 enzyme, CCF2-FA substrate, read-out: IMP-1 IC50
[18] = Serratia marcescens CL5741 (IMP-1), 95% growth inhibition
[19] = (CLB30016, NDM-1), 95% growth inhibition
[20] = Klebsiella pneumoniae IHMA599644 (VIM-1), 95% growth inhibition
[21] = VIM-1 enzyme, CCF2-FA fluorescence assay, read-out: VIM-1 IC50
[22] = VIM-1 enzyme, CCF2-FA substrate, read-out: VIM-1 IC50
[23] = VIM-1 IC50, fluorescence assay with CCF2-FA substrate
[24] = concentration giving 95% inhibition of bacterial growth

Sequence of IMP-1 (P52699 whole entry, looked up): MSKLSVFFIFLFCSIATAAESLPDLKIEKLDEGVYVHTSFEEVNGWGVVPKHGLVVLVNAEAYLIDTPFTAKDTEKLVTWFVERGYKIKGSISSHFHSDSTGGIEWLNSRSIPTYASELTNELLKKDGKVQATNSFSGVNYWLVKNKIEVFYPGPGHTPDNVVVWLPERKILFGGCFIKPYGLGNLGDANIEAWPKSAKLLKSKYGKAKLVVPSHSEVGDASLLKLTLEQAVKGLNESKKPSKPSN
Sequence of NDM-1 (C7C422 whole entry, looked up, species assumed): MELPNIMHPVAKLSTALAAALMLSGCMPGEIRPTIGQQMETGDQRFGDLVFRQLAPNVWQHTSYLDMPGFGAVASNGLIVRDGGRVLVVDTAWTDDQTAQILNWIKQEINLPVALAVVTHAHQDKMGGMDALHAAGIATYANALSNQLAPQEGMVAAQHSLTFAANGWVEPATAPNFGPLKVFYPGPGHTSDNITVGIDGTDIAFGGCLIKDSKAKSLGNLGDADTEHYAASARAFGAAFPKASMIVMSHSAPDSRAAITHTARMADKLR

NS(=O)(=O)c1c(C(F)(F)F)ccc(-c2ccc(C3CN(CC4CCNC4)C3)cc2)c1-c1nnn[nH]1 (stereo not drawn) [Example 818, 4′-[1-(pyrrolidin-3-ylmethyl)azetidin-3-yl]-2-(1H-tetrazol-5-yl)-4-(trifluoromethyl)biphenyl-3-sulfonamide]
pIC50 (VIM-1; [4]): 7.76
pIC50 (NDM-1; [5]): 8.36
pIC50 (IMP-1; [6]): 8.07
Serratia marcescens MITC95 [1, 7]: 3.125 µM
Escherichia coli MITC95 [2, 8]: 1.563 µM
Klebsiella pneumoniae MITC95 [3, 9]: 12.5 µM

NC(=O)CCc1ccc(-c2ccc(C(F)(F)F)c(S(N)(=O)=O)c2-c2nn[nH]n2)cc1 [Example 449, 3-(3′-sulfamoyl-2′-(2H-tetrazol-5-yl)-4′-(trifluoromethyl)-[1,1′-biphenyl]-4-yl)propanamide]
pIC50 (VIM-1; VIM-1 IC50, VIM-1 enzyme, CCF2-FA fluorescence assay): 9.09
pIC50 (NDM-1; [10]): 9.18
pIC50 (IMP-1; [11]): 9.27
Serratia marcescens MITC95 [1, 12]: 0.1953 µM
Escherichia coli MITC95 [2, 13]: 0.7813 µM
Klebsiella pneumoniae MITC95 [3, 14]: 6.25 µM

NC1CCCC(N[C@H]2CC[C@H](c3ccc(C(F)(F)F)c(S(N)(=O)=O)c3-c3nnn[nH]3)CC2)C1 (stereo partly drawn) [Example 687, 3-{4-[(3-aminocyclohexyl)amino]cyclohexyl}-2-(1H-tetrazol-5-yl)-6-(trifluoromethyl)benzene sulfonamide]
pIC50 (VIM-1; [15]): 7.56
pIC50 (NDM-1; [16]): 7.60
pIC50 (IMP-1; [17]): 7.03
Serratia marcescens MITC95 [1, 18]: 6.25 µM
Escherichia coli MITC95 [2, 19]: 3.125 µM
Klebsiella pneumoniae MITC95 [3, 20]: 25 µM

CC1(C)CCN(Cc2ccc(-c3cccc(S(N)(=O)=O)c3-c3nnn[nH]3)cc2)C1 [Example 346, 4′-[(3,3-dimethylpyrrolidin-1-yl)methyl]-2-(1H-tetrazol-5-yl)biphenyl-3-sulfonamide]
pIC50 (VIM-1; [21]): 6.39
pIC50 (NDM-1; [10]): 7.93
pIC50 (IMP-1; [11]): 6.63
Serratia marcescens MITC95 [1, 12]: 2.344 µM
Escherichia coli MITC95 [2, 13]: 1.563 µM
Klebsiella pneumoniae MITC95 [3, 14]: 150 µM

NS(=O)(=O)c1c(C(F)(F)F)ccc(-c2ccc(C(O)C3CCNCC3)cc2)c1-c1nnn[nH]1 (stereo not drawn) [Example 738, 4′-[hydroxy(piperidin-4-yl)methyl]-2-(1H-tetrazol-5-yl)-4-(trifluoromethyl)biphenyl-3-sulfonamide]
pIC50 (VIM-1; [15]): 8.47
pIC50 (NDM-1; [16]): 8.89
pIC50 (IMP-1; [17]): 8.64
Serratia marcescens MITC95 [1, 18]: 6.25 µM
Escherichia coli MITC95 [2, 19]: 3.125 µM
Klebsiella pneumoniae MITC95 [3, 20]: 50 µM

NCCNc1nc2c(-c3cccc(S(N)(=O)=O)c3-c3nn[nH]n3)cccc2s1 [Example 639, 3-[2-(2-aminoethylamino)-1,3-benzothiazol-4-yl]-2-(2H-tetrazol-5-yl)benzenesulfonamide]
pIC50 (VIM-1; [22]): 7.98
pIC50 (NDM-1; [16]): 8.70
pIC50 (IMP-1; [17]): 6.73
Serratia marcescens MITC95 [1, 18]: 25 µM
Escherichia coli MITC95 [2, 19]: 1.563 µM
Klebsiella pneumoniae MITC95 [3, 20]: 6.25 µM

NS(=O)(=O)c1cccc(-c2ccc(NCCO)nc2)c1-c1nn[nH]n1 [Example 426, 3-(6-((2-hydroxyethyl)amino)pyridin-3-yl)-2-(2H-tetrazol-5-yl)benzenesulfonamide]
pIC50 (VIM-1; [21]): 6.59
pIC50 (NDM-1; [10]): 8.03
pIC50 (IMP-1; [11]): 6.45
Serratia marcescens MITC95 [1, 12]: 9.375 µM
Escherichia coli MITC95 [2, 13]: 0.4063 µM
Klebsiella pneumoniae MITC95 [3, 14]: 25 µM

NS(=O)(=O)c1c(C(F)(F)F)ccc(-c2ccc(C3CCN(C[C@H]4CCCN4)CC3)cc2)c1-c1nnn[nH]1 [Example 675, 4′-{1-[(2R)-pyrrolidin-2-ylmethyl]piperidin-4-yl}-2-(1H-tetrazol-5-yl)-4-(trifluoromethyl)biphenyl-3-sulfonamide]
pIC50 (VIM-1; [15]): 7.83
pIC50 (NDM-1; [16]): 8.34
pIC50 (IMP-1; [17]): 8.71
Serratia marcescens MITC95 [1, 18]: 6.25 µM
Escherichia coli MITC95 [2, 19]: 4.688 µM
Klebsiella pneumoniae MITC95 [3, 20]: 150 µM

CCn1c(N)nc2cc(-c3ccc(C(F)(F)F)c(S(N)(=O)=O)c3-c3nnn[nH]3)ccc21 [Example 752, 3-(2-amino-1-ethyl-1H-benzimidazol-5-yl)-2-(1H-tetrazol-5-yl)-6-(trifluoromethyl)benzenesulfon-amide]
pIC50 (VIM-1; [4]): 9.17
pIC50 (NDM-1; [5]): 8.63
pIC50 (IMP-1; [6]): 8.20
Serratia marcescens MITC95 [1, 7]: 12.5 µM
Escherichia coli MITC95 [2, 8]: 1.563 µM
Klebsiella pneumoniae MITC95 [3, 9]: 25 µM

NS(=O)(=O)c1c(C(F)(F)F)ccc(N2CCC[C@@H](O)C2)c1-c1nnn[nH]1 [Example 665, 3-[(3R)-3-hydroxypiperidin-1-yl]-2-(1H-tetrazol-5-yl)-6-(trifluoromethyl)benzenesulfonamide]
pIC50 (VIM-1; [22]): 9.00
pIC50 (NDM-1; [16]): 8.13
pIC50 (IMP-1; [17]): 7.53
Serratia marcescens MITC95 [1, 18]: 1.172 µM
Escherichia coli MITC95 [2, 19]: 1.563 µM
Klebsiella pneumoniae MITC95 [3, 20]: 4.688 µM

N=C(N)NC1CCN(c2ccc(C(F)(F)F)c(S(N)(=O)=O)c2-c2nnn[nH]2)CC1 [Example 824, 1-[1-[3-sulfamoyl-2-(1H-tetrazol-5-yl)-4-(trifluoromethyl)phenyl]-4-piperidyl]guanidine]
pIC50 (VIM-1; [4]): 9.15
pIC50 (NDM-1; [5]): 7.27
pIC50 (IMP-1; [6]): 7.23
Serratia marcescens MITC95 [1, 7]: 0.7813 µM
Escherichia coli MITC95 [2, 8]: 1.563 µM
Klebsiella pneumoniae MITC95 [3, 9]: 0.7813 µM

NS(=O)(=O)c1c(C(F)(F)F)ccc(N2C[C@@H](O)[C@@H](O)C2)c1-c1nnn[nH]1 [Example 757, 3-[(3R,4S)-3,4-dihydroxypyrrolidin-1-yl]-2-(1H-tetrazol-5-yl)-6-(trifluoromethyl) benzenesulfonamide]
pIC50 (VIM-1; [23]): 6.45
pIC50 (NDM-1; [5]): 7.08
pIC50 (IMP-1; [6]): 6.96
Serratia marcescens MITC95 [1, 7]: 25 µM
Escherichia coli MITC95 [2, 8]: 12.5 µM
Klebsiella pneumoniae MITC95 [3, 9]: >200 µM

NS(=O)(=O)c1cccc(-c2ccc(N3CCC(O)C3)nc2)c1-c1nnn[nH]1 (stereo not drawn) [Example 633, 3-[6-(3-hydroxypyrrolidin-1-yl)-3-pyridyl]-2-(1H-tetrazol-5-yl)benzenesulfonamide]
pIC50 (VIM-1; [22]): 6.92
pIC50 (NDM-1; [16]): 8.31
pIC50 (IMP-1; [17]): 7.18
Serratia marcescens MITC95 [1, 18]: 4.833 µM
Escherichia coli MITC95 [2, 19]: 0.125 µM
Klebsiella pneumoniae MITC95 [3, 20]: 37.5 µM

NS(=O)(=O)c1c(C(F)(F)F)ccc(N2CC[C@H]3NCCO[C@@H]3C2)c1-c1nnn[nH]1 [Example 773, 3-[(4aR,8aR)-octahydro-6H-pyrido[3,4-b][1,4]oxazin-6-yl]-2-(1H-tetrazol-5-yl)-6-(trifluoromethyl) benzenesulfonamide]
pIC50 (VIM-1; [4]): 8.95
pIC50 (NDM-1; [5]): 7.50
pIC50 (IMP-1; [6]): 7.77
Serratia marcescens MITC95 [1, 7]: 6.25 µM
Escherichia coli MITC95 [2, 8]: 6.25 µM
Klebsiella pneumoniae MITC95 [3, 9]: 3.125 µM

Nc1ccc(-c2ccc(Br)c(S(N)(=O)=O)c2-c2nn[nH]n2)cn1 [Example 264, 3-(6-aminopyridin-3-yl)-6-bromo-2-(2H-tetrazol-5-yl)benzenesulfonamide]
pIC50 (VIM-1; [21]): 8.36
pIC50 (NDM-1; [10]): 8.34
pIC50 (IMP-1; [11]): 7.77
Serratia marcescens MITC95 [1, 12]: 0.3828 µM
Escherichia coli MITC95 [2, 13]: 0.04688 µM
Klebsiella pneumoniae MITC95 [3, 14]: 1.781 µM

Nc1nnc(C2CCN(c3ccnc(S(N)(=O)=O)c3-c3nnn[nH]3)CC2)s1 [Example 216, 4-[4-(5-amino-1,3,4-thiadiazol-2-yl)piperidin-1-yl]-3-(1H-tetrazol-5-yl)pyridine-2-sulfonamide]
pIC50 (VIM-1; [23]): 7.01
pIC50 (NDM-1; [5]): 7.39
pIC50 (IMP-1; [6]): 6.34
Serratia marcescens expressing IMP-1 (CL5741) MITC95 [1, 24]: 12.5 µM
Escherichia coli expressing NDM-1 (CLB 30016) MITC95 [2, 24]: 1.172 µM
Klebsiella pneumoniae expressing VIM-1 (IHMA 599644) MITC95 [3, 24]: 18.75 µM

Nc1ccc(-c2ccc(CC[C@H]3CC[C@H](N)CC3)c(S(N)(=O)=O)c2-c2nnn[nH]2)cn1 [Example 577, 6-(2-((1r,4s)-4-aminocyclohexyl)ethyl)-3-(6-aminopyridin-3-yl)-2-(1H-tetrazol-5-yl)benzenesulfonamide]
pIC50 (VIM-1; [22]): 7.98
pIC50 (NDM-1; [16]): 8.61
pIC50 (IMP-1; [17]): 7.53
Serratia marcescens MITC95 [1, 18]: 3.125 µM
Escherichia coli MITC95 [2, 19]: 0.7813 µM
Klebsiella pneumoniae MITC95 [3, 20]: 12.5 µM

NC[C@H]1CC[C@H](c2ccc(C(F)(F)F)c(S(N)(=O)=O)c2-c2nnn[nH]2)CC1 [Example 501, 3-(trans 4-(aminomethyl)cyclohexyl)-2-(1H-tetrazol-5-yl)-6-(trifluoromethyl)benzenesulfonamide]
pIC50 (VIM-1; [22]): 9.29
pIC50 (NDM-1; [16]): 8.82
pIC50 (IMP-1): 8.27
Serratia marcescens MITC95 [1, 18]: 1.563 µM
Escherichia coli MITC95 [2, 19]: 1.172 µM
Klebsiella pneumoniae MITC95 [3, 20]: 1.563 µM
